Assay results as given in article PMC3701698, “Pathway-based Screening Strategy for Multitarget Inhibitors of Diverse Proteins in Metabolic Pathways” (PLoS Computational Biology, 2013).
Read-outs that look alike come from different tables or passages of the source.

Experiments:
[1] = molecular target: T1, shikimate dehydrogenase (SDH) (Helicobacter pylori, UniProt P56119); assay: Single enzyme inhibition assay, SDH activity (formation of NADPH, A340); assay type: biochemical; settings: for IC50: 1.6 mM shikimate, 2 mM NADP, 25°C, pH 8.0
T1 sequence (P56119 1-263): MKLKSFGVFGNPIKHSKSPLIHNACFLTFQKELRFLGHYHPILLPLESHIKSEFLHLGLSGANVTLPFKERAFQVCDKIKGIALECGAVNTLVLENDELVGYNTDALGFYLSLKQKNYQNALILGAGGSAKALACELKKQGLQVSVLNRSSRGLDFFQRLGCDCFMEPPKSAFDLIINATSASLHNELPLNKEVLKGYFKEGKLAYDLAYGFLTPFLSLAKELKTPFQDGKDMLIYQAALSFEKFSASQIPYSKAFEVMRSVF
Procedure: (§1) The SK activity was measured by coupling the release of ADP from the SK-catalyzed reaction to the oxidation of NADH using pyruvate kinase (EC 2.7.1.40) and lactate dehydrogenase (EC 1.1.1.27) as coupling enzymes. SDH activity was determined by monitoring the formation of NADPH. The initial rate of the reaction was measured by the increase in absorbance at A340 (ε = 6,200 M^−1 cm^−1) in the present of shikimate. The assay was performed at 25°C in a mixture of 100 mM Tris-HCl buffer, pH 8.0.
(§2) Both SK and SDH were used in a final enzyme concentration of 100 nM. For determination of IC50 for each inhibitor, the assay was initiated by the addition of shikimate (1.6 mM) after incubation in a buffer containing cofactor (2 mM ATP for SK or 2 mM NADP for SDH), enzyme, and inhibitor (dissolved in 5% dimethyl sulfoxide). All assays were conducted in a 96-well microplate and analyzed with a spectrophotometer (FLUOstar OPTIMA, BMG LABTECH). A dose-response curve was fitted using the non-linear regression function of GraphPad Prism®.

shikimate kinase (SK) = shikimate kinase (SK) (Helicobacter pylori, UniProt P56073); assay: Single enzyme inhibition assay, SK activity (ADP release coupled to NADH oxidation); assay type: biochemical; settings: for IC50: 1.6 mM shikimate, 2 mM ATP, 25°C, pH 8.0; for inhibition at 100 µM: Table S4, read-out: SK IC50 (μM), dash = inhibition percentage
shikimate kinase (SK), sequence (P56073 whole entry): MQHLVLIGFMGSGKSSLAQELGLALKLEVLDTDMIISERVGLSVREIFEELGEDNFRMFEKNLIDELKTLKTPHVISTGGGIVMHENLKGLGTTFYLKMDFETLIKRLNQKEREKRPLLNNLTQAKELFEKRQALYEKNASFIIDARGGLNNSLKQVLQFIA
Procedure: as §1, §2

dual enzyme (SDH and SK) = assay: SDH-SK dual enzyme activity ADP assay; assay type: biochemical, Helicobacter pylori; settings: for dual enzyme dose-response curve compared with SDH and SK curves: 2 mM 3-dehydroshikimate, 100 nM SDH, 100 nM SK; for dual enzyme (SDH and SK) activity curve: at inhibitor concentrations greater than the IC90 value
Procedure: (§3) We performed ADP assay providing a direct method to analyze SDH-SK dual enzyme activity. The assay was initiated by addition of the 3-dehydroshikimate (2 mM) after incubating in a reaction mixture containing 2.5 mM ATP, 0.5 mM NADPH, 100 nM SDH, 100 nM SK enzyme, 50 mM KCl, 5 mM MgCl2 and different inhibitors. The reaction was carried out at 25°C in a mixture of 100 mM Tris-HCl buffer, pH 7.5 and terminated at 100°C for 5 mins in the reaction time of initial rate. The amount of ADP was measured by using ADP Colorimetric Assay Kit II (BioVision) according to the manufacturer's instruction. We also performed 3-dehydroquinate synthase inhibition assay. The reaction was comprised of 3-deoxy-D-arabinoheptulosonate 7-phosphate (1 mM) and NAD+ (0.5 mM). The amount of NADH was measured by using NAD+/NADH Quantification Kit (BioVision). All assays were conducted in a 96-well microplate and analyzed with a spectrophotometer (FLUOstar OPTIMA, BMG LABTECH). The dose-response curve was fitted using the non-linear regression function of GraphPad Prism. The IC90 values were computed from the IC50 and Hill slop.

[2] = molecular target: T2, 3-dehydroquinate synthase (Helicobacter pylori, UniProt P56081); assay: 3-dehydroquinate synthase inhibition assay (NADH quantification); assay type: biochemical; settings: for inhibition of 3-dehydroquinate synthase: 1 mM DAHP, 0.5 mM NAD+
T2 sequence (P56081 1-343): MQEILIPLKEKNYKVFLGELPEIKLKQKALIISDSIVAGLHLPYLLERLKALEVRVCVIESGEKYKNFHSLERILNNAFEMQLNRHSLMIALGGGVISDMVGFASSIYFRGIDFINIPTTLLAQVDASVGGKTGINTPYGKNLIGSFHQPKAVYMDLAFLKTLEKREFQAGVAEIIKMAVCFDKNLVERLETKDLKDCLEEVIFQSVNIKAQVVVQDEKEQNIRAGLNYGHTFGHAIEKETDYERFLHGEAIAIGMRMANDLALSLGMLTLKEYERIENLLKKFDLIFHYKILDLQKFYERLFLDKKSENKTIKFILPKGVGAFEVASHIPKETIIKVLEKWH
Procedure: as §3

[3] = 100 nM enzyme, read-out: SDH IC50
[4] = 100 nM enzyme, read-out: SK IC50

SMILES | IC50 [1, 3] | IC50 (shikimate kinase (SK); [4]) | inhibition at 100 µM (shikimate kinase (SK)) | dual enzyme dose-response curve compared with SDH and SK curves (dual enzyme (SDH and SK)) | inhibition of 3-dehydroquinate synthase [2] | dual enzyme (SDH and SK) activity curve (dual enzyme (SDH and SK)) | also measured
Cc1ccc(S(=O)(=O)CCSc2n[nH]c(=O)n2-c2ccc(OCc3ccccc3)cc2)cc1 [HTS02873] | 4.9 µM | > 100 µM | < 50% | – | – | – | inhibitory effect for SK (shikimate kinase (SK); at 100 µM): no inhibitory effect
O=C(Nc1ccc2c(O)cc(S(=O)(=O)O)cc2c1)Nc1ccc2c(O)cc(S(=O)(=O)O)cc2c1 [NSC45174] | – | – | – | median effect | – | approximately 0 | IC50 ([1]; SDH IC50, 100 nM enzyme): 3.6 µM; IC50 [2]: 7.1 µM; IC50 (shikimate kinase (SK); SK IC50, 100 nM enzyme): < 10 µM
O=C(NNC(=O)C1c2ccccc2Oc2ccccc21)c1cccc([N+](=O)[O-])c1 [RH00037] | 24.8 µM | – | – | – | no inhibitions | – | –

Second part, led by results:

IC50 [1, 3] | IC50 (shikimate kinase (SK); [4]) | inhibition at 100 µM (shikimate kinase (SK)) | dual enzyme dose-response curve compared with SDH and SK curves (dual enzyme (SDH and SK)) | inhibition of 3-dehydroquinate synthase [2] | SMILES | dual enzyme (SDH and SK) activity curve (dual enzyme (SDH and SK)) | also measured
1.4 µM | 4.8 µM | – | median effect | no inhibitions | Cc1cc(/N=N/c2ccc(/N=N/c3ccc(/N=N/c4ccc(O)c(C(=O)O)c4)cc3)c(S(=O)(=O)O)c2C)c(N)cc1N [NSC45611] | approximately 0 | –
– | – | < 50% | – | – | O=C(Nc1ccc2ncccc2c1)Nc1ccc2ncccc2c1 [NSC71881] | – | inhibition at 100 µM ([1]; at 100 μM, Table S4, read-out: SDH IC50 (μM), dash = inhibition percentage): < 50%
– | – | – | nearly identical profiles | – | Nc1ccc2c(O)c(N=Nc3ccc4c(O)cc(S(=O)(=O)O)cc4c3)c(S(=O)(=O)O)cc2c1 [NSC162535, reference compound] | – | –
